Data from US20090312370A1, “MACROCYCLIC COMPOUNDS USEFUL AS BACE INHIBITORS” (priority 2006, published 2009).

Biological target: T1, Human BACE (Homo sapiens, UniProt P56817)
T1 construct: Recombinant BACE (extracellular domain, expressed in baculovirus and purified using standard methods); made in house; host or cells: baculovirus expression system (insect cells)
Experiment: Test 1: Inhibition of Human BACE
Type: biochemical
Details: recombinant BACE, fluorescence-quenched peptide substrate, pH 4.5
Experimental: Test 1: Inhibition of Human BACE
Recombinant BACE (extracellular domain, expressed in baculovirus and purified using standard methods) at 0.1 to 10 nM concentrations is incubated with the test compound at various concentrations for 1 hour at room temperature in 10 to 100 mM acetate buffer, pH 4.5, containing 0.1% CHAPS.

T1 sequence (P56817 46-457 limits assumed): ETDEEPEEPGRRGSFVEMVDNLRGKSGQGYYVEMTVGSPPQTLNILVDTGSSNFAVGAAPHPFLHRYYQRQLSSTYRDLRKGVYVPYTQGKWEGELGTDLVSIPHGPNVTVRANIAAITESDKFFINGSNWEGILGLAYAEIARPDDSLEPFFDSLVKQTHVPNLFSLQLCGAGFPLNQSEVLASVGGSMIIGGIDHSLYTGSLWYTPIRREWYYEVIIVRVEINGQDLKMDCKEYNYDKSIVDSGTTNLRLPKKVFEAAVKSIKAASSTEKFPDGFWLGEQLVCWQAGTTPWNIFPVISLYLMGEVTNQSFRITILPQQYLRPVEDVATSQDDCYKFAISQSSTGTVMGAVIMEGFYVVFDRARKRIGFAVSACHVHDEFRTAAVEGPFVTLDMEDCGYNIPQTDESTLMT

IC50: 40 nM
SMILES: COc1cc2cc(c1)C(=O)N[C@H]([C@H](O)CNC1(c3cc(C(C)(C)C)ccn3)CC1)C[C@H](C)CCCCCCCN2 [Example 7, (10R,12S)-12-{(R)-2-[1-(4-tert-Butyl-pyrid-2-yl)-cyclopropylamino]-1-hydroxy-ethyl}-17-methoxy-10-methyl-2,13-diaza-bicyclo[13.3.1]nonadeca-1(19),15,17-trien-14-one]
